This is an account of results in patent publication US20100048498A1, “STABLE NON-DIHYDRATE AZITHROMYCIN ORAL SUSPENSIONS” (priority 2004, published 2010).

The nature of series [1]: Stability of non-dihydrate azithromycin in suspension (POS formulation II or bulk drug in water); SS-NMR quantification of form A. It counts as physicochemical.
Experimental: The stability of various forms of non-dihydrate azithromycin, in water and in flavored oral suspensions, was evaluated. Specifically, non-dihydrate azithromycin forms G, M, N, F and J were separately used in POS formulation II. These POS formulations were constituted by mixing with 18 mls of water. The suspensions were then stored for 1, 5 and 10 days at either 5° C. or 30° C. Suspensions of bulk azithromycin forms G, M, N, F and J were also constituted with 18 mls of water and stored under the same conditions.
Upon conclusion of the storage time period the suspensions were filtered and suspended solids collected as described previously.
The nature of series [2]: Effect of cyclodextrins on non-dihydrate azithromycin form conversion in constituted POS formulation II. Format: physicochemical. To be noted: 24 hours room temperature. The procedure:
The effect of adding a complexing agent such as cyclodextrin on the stability of non-dihydrate azithromycin forms G, M and F against conversion in a constituted POS formulation were evaluated.
Forms G, M and F of azithromycin were formulated into POS formulation II. Various cyclodextrins were added to the POS formulation II and the resulting samples were constituted with 18 mls of water. The suspensions were then stored for 24 hours at room temperature. At the end of the storage time, the suspensions were filtered and the recovered solids were weighed and analyzed by SS-NMR to quantify the presence of azithromycin dihydrate (form A). The control samples were formulated into formulation II with non-dihydrate azithromycin form G, M and F without cyclodextrins and were constituted with water, stored, filtered and analyzed identically to the cyclodextrin samples described above. A control, which had no cyclodextrin was run with each series of experiments. The SS-NMR data are presented in Tables 10, 11, 12 and the results are given as weight percent (% wt), of the recovered azithromycin sample.

Regarding `CC[C@H]1OC(=O)[C@H](C)[C@@H](O[C@H]2C[C@@](C)(OC)[C@@H](O)[C@H](C)O2)[C@H](C)[C@@H](O[C@@H]2O[C@H](C)C[C@H](N(C)C)[C@H]2O)[C@](C)(O)C[C@@H](C)CN(C)[C@H](C)[C@@H](O)[C@]1(C)O` [Form G, azithromycin sesquihydrate], the “% A (azithromycin dihydrate, form A, of recovered azithromycin)” value in series [1] (Bulk Drug in 18 mls water, 5° C., Day 1) is 1%; in series [1] (Bulk Drug in 18 mls water, 5° C., Day 5), 6%; in series [1] (Bulk Drug in 18 mls water, 5° C., Day 10) it was 12%; in series [1] (Bulk Drug in 18 mls water, 30° C., Day 1), 3%; in series [1] (Bulk Drug in 18 mls water, 30° C., Day 5), 26%; in series [1] (Bulk Drug in 18 mls water, 30° C., Day 10), 73%. The “% A (azithromycin dihydrate, form A, of recovered azithromycin)” value in series [1] (Formulation II constituted with 18 mls water, 5° C., Day 1) is reported as 72%; in series [1] (Formulation II constituted with 18 mls water, 5° C., Day 5), 75%; in series [1] (Formulation II constituted with 18 mls water, 5° C., Day 10), 78%; in series [1] (Formulation II constituted with 18 mls water, 30° C., Day 1), 82%; in series [1] (Formulation II constituted with 18 mls water, 30° C., Day 5) it was 74%; in series [1] (Formulation II constituted with 18 mls water, 30° C., Day 10), 76%. Further, the “% Form A” value in series [2] (POS Formulation II + Hydroxypropyl β-cyclodextrin 1.2 % w/w, Series 2, 18 mls water) came out at 4.0%; in series [2] (POS Formulation II + Hydroxypropyl β-cyclodextrin 11.1 % w/w, Series 3, 18 mls water), 4.9%; in series [2] (POS Formulation II + Sulfobutylether β-cyclodextrin 1.2 % w/w, Series 2, 18 mls water), 14.4%; in series [2] (POS Formulation II + Sulfobutylether β-cyclodextrin 11.1 % w/w, Series 3, 18 mls water), 7.0%; in series [2] (POS Formulation II + α-cyclodextrin 1.2 % w/w, Series 1, 18 mls water), 4.8%; in series [2] (POS Formulation II + β-cyclodextrin 1.2 % w/w, Series 2, 18 mls water) it was 8.3%. Moreover, the “% Form A” value was 13.4% in series [2] (POS Formulation II + γ-cyclodextrin 1.2 % w/w, Series 1, 18 mls water); 68.3% in series [2] (POS Formulation II, no cyclodextrin (Control), Series 1, 18 mls water); 46.5% in series [2] (POS Formulation II, no cyclodextrin (Control), Series 2, 18 mls water); 67.9% in series [2] (POS Formulation II, no cyclodextrin (Control), Series 3, 18 mls water).
